Experimental findings from patent publication CN108864033A, “苯基取代的酰肼衍生物及其用途” (Guangdong HEC Pharmaceutical Co Ltd, priority 2017, dated 2018) are described below.

A word on the EC50: it is the concentration at which the effect is half-maximal. Low readings indicate an effect from little substance, high ones a need for much substance.

The assay has as its system glutamate-induced oxidative stress injury of HT22 cells (谷氨酸诱导的HT22细胞氧化应激损伤). In words: Protection of HT22 cells against glutamate-induced oxidative stress injury (LDH release, cell viability). In kind it is cell-based. To be noted: HT-22, HT22 mouse hippocampal neuronal cells, 15 mM glutamate, 24 h, 10 concentrations, 0.25% DMSO. A general note: LDH in the medium is a marker of cell lysis.
`Cc1ccc(N(/N=C/c2ccc3c(c2)OCO3)C(=O)C(F)(F)F)c(C)c1` [实施例1, (E)-N'-(苯并-1,3-二恶环戊烷-5-亚甲基)-N-(2,4-二甲苯基)-2,2,2-三氟乙酰肼] registered an EC50 of 130 nM.
Consider `Cc1ccc(N(/N=C/c2ccc(Cl)cc2Cl)C(=O)C(F)(F)F)c(C)c1` [实施例2, (E)-N'-(2,4-二氯苯亚甲基)-N-(2,4-二甲苯基)-2,2,2-三氟乙酰肼], for which the response was half-maximal at 130 nM (EC50).
`CC(=O)N(/N=C/c1ccc2c(c1)OCO2)c1ccc(C)cc1C` [实施例3, (E)-N'-(苯并-1,3-二恶环戊烷-5-亚甲基)-N-(2,4-二甲苯基)乙酰肼]: the response was half-maximal at 4120 nM (EC50).
